Assay results published in US4120864A, “1,2,4-4H-triazole derivatives” (Rohm and Haas Company, priority 1972, dated 1978).
Like-named read-outs stand apart in the source and are kept apart here.

How the values were obtained:
[1] = tested on: wheat leaf rust, Puccinia recondita; test: whole plant or invertebrate; type: in vivo; settings: foliar; for pest or weed control at 280.212 g/ha: read-out: % Control (without rain), foliar, 0.25 lb.; for pest or weed control at 1120.85 g/ha: read-out: % Control (without rain), foliar, 1 lb.
[2] = tested on: wheat leaf rust, Puccinia recondita; test: whole plant or invertebrate; type: in vivo; settings: foliar; for pest or weed control at 280.212 g/ha: read-out: % Control (with 1" of rain), foliar, 0.25 lb., 1" of rain; for pest or weed control at 1120.85 g/ha: read-out: % Control (with 1" of rain), foliar, 1 lb., 1" of rain

SMILES | pest or weed control at 280.212 g/ha [1] [%] | pest or weed control at 1120.85 g/ha [1] [%] | pest or weed control at 280.212 g/ha [2] [%] | pest or weed control at 1120.85 g/ha [2] [%]
c1nc(-n2cnnc2)n[nH]1 [Example 66, 4-(3-(1,2,4-triazy)-1,2,4-triazole] | 100 | 100 | 99 | 
c1cnc(-n2cnnc2)nc1 [Example 67, 4-(2-pyrimidyl)-1,2,4-triazole] | 94 | 87 |  | 97
c1csc(-n2cnnc2)n1 [Example 68, 4-(2-thiazyl)-1,2,4-triazole] | 66 | 73 | 67 | 96
c1ccc2sc(-n3cnnc3)nc2c1 [Example 69, 4-(2-benzothiazyl)-1,2,4-triazole] | 100 | 100 | 98 | 98
Clc1cccc2sc(-n3cnnc3)nc12 [Example 70] | 100 | 100 | 100 | 
c1ccc2[nH]c(-n3cnnc3)nc2c1 [Example 71, 4-(2-benzimidazolyl)-1,2,4-triazole] | 10 | 20 | 0 | 0
Cn1cnnc1S [Example 73, 3-mercapto-4-methyl-1,2,4-triazole] | 34 | 50 | 0 | 10
CCn1cnnc1S [Example 74, 3-mercapto-4-ethyl-1,2,4-triazole] | 40 | 60 | 0 | 0
CC(C)(C)n1cnnc1S [Example 77, 3-mercapto-4-t-butyl-1,2,4-triazole] | 68 | 100 | 57 | 80
CCCCCCCCn1cnnc1S [Example 80, 3-mercapto-4-n-octyl-1,2,4-trizole] | 100 | 100 | 51 | 65
CC(C)(C)CC(C)(C)n1cnnc1S [Example 81, 3-mercapto-4-t-octyl-1,2,4-triazole] | 100 | 100 | 53 | 86
CCCCCCCCCCn1cnnc1S [Example 82, 3-mercapto-4-n-decyl-1,2,4-triazole] | 61 | 78 | 46 | 72
Sc1nncn1C1CCCCC1 [Example 83, 3-mercapto-4-cyclohexyl-1,2,4-triazole] | 44 | 34 | 100 | 98
Sc1nncn1-c1ccccc1 [Example 85, 3-mercapto-4-phenyl-1,2,4-triazole] | 80 | 85 | 72 | 90
Cn1c(O)nnc1S [Example 86, 3-mercapto-4-methyl-5-hydroxy-1,2,4-triazole] | 96 | 99 | 63 | 63
CCCCn1c(O)nnc1S [Example 87, 3-mercapto-4-n-butyl-5-hydroxy-1,2,4-triazole] | 15 | 49 | 0 | 0
Oc1nnc(S)n1-c1ccccc1 [Example 88, 3-mercapto-4-phenyl-5-hydroxy-1,2,4-triazole] | 73 | 80 | 98 | 100
CCCCn1c(C)nnc1S [Example 89, 3-mercapto-4-n-butyl-5-methyl-1,2,4-triazole] | 26 | 51 | 57 | 80
